Measurements as given in patent US12383535B2, “Hydrogen peroxide-responsive KEAP1-NRF2 ppi inhibitor prodrug, and preparation method therefor” (CHINA PHARMACEUTICAL UNIVERSITY, priority 2019, dated 2025).
pEC50: −log10 of the molar value.

Assays:
[1] = Drug release rate by HPLC (H2O2 activation of prodrug); format: physicochemical; details: in the presence of H2O2, 12 h, UPLC/HRMS
Procedure: The target compound was dissolved in DMSO to give a 10 mM stock solution, which was then stored at −20° C. The final concentration was brought to 50 μM by adding the target compound (10 mM) to phosphate buffered saline (PBS) (10 mM, pH 7.4), and H2O2 was added. The solution was well vortexed, and then incubated at 37° C. Samples were taken at appropriate time intervals and analyzed by HPLC directly after injection, and the peak areas were recorded to calculate the percentage of the compound. The procedure was repeated three times. The following Agilent 1260 HPLC and DAD detectors were used: Agilent C18 column (4.6×150 mm, 3.5 μm); mobile phase: 70% methanol; flow rate: 0.5 mL/min. A standard curve of the compound was plotted against concentration.
After treatment with 10 mM H2O2, the prodrug pro2 was activated with prolonged incubation time and the active parent compound 2 was completely released within 3 h (HPLC-determined conversion >98%, (B) of FIG. 1 and (C) of FIG. 1).

[2] = tested on: Nrf2-ARE in RAW264.7 cells; assay: ARE inductivity under LPS stimulation; format: cell-based, mouse; details: Mus musculus, RAW264.7, read-out: EC50 of ARE inductivity
[3] = Parallel artificial membrane permeability assay (PAMPA); format: in vitro ADME
Procedure: Potential solubility data were obtained with a pSOL model 3 instrument (pION INC, Cambridge, Massachusetts, USA). Cell membrane permeability was determined on a PAMPA Explorer instrument (pION).
Subsequently, the permeability of cell membranes was measured by standard parallel artificial membrane permeability assay (PAMPA).

[4] = tested on: RAW264.7 cells; assay: IL-1β, IL-6, TNF-α and NO assays in cell culture supernatant; format: cell-based, mouse; details: Mus musculus, RAW264.7, read-out: EC50 for reduction of extracellular NO concentration
Procedure: IL-1β (IL-1β (m) ELISA kit, EK0394, Boster), IL-18 (IL-18 (m) ELISA kit, EMC011, NeoBioscience), IL-6 (IL-6 (m) ELISA kit EK0411, Boster), TNF-α (TNF-α (m) ELISA kit, EK0527, Boster) and NO (nitrate/nitrite assay kit, S0023, Beyotime, China) were tested using commercially available kits according to the manufacturer's instructions.
Then, several inflammatory mediators closely related to ROS, including IL-1β, IL-6, TNF-α and NO, were further evaluated.

Row | Structure (SMILES) | production of the active parent compound 1 [1] | pEC50 [2] | Pe at pH 7.4 [3] | Papp ([3]; pH 7.4, read-out: Pe at pH 7.4) [×10⁻⁶ cm/s] | pEC50 [4]
1 | COc1ccc(S(=O)(=O)N(CC(=O)N2CCSC2=O)c2ccc(N(CC(=O)N3CCSC3=O)S(=O)(=O)c3ccc(OC)cc3)c3ccccc23)cc1 [pro1, N,N′-(naphthalene-1,4-diyl)bis(4-methoxy-N-(2-oxo-2-(2-oxothiazolidin-3-yl)ethyl)benzenesulfonamide)] | no production of the active parent compound 1 could be observed | – | – | – | –
2 | COc1ccc(S(=O)(=O)Nc2ccc(N(CC(=O)O)S(=O)(=O)c3ccc(OC)cc3)c3ccccc23)cc1 [Compound 2, N-(4-((4-methoxyphenyl)sulfonamido)naphthalen-1-yl)-N-((4-methoxyphenyl)sulfonyl)glycine] | – | < 5.34 | 0.80 10^−6 cm/s | 0.8 | < 6.92
